Data: US7345065B2, “Methods and compositions for alleviating pain” (Allergan, Inc., priority 2002, dated 2008)
Entries after “also recorded” stand apart in the source; their conditions may differ.

Legend:
[1] = tested on: sulprostone-sensitized wild type mice; assay: Sulprostone sensitized pain (allodynia), wild type mice; type: in vivo, mouse
Experimental: Non-specific α-adrenergic agonists were assayed in α-2A receptor deficient (“knockout”) mice (Hein et al., supra, 1999) using a mouse model of sulprostone sensitized pain in which allodynia is evoked by intrathecal administration of a selective prostaglandin E2 receptor agonist to conscious mice essentially as described in Minami et al., Pain 57:217-223 (1994). In this model, the pain response to stroking the flank with a paint brush is scored eight times over a 35 minute period starting 15 minutes following spinal administration of sulprostone and intrathecal or intraperitoneal administration of drug or control vehicle. Sulprostone elicits a “pain” score of 12-13 on a 16-point scale.
(§1) Assays for allodynia in wild type and α-2A knockout mice were performed essentially according to the method of Yaksh and Harty, J. Pharmacology Exp. Ther. 244: 501-507 (1998). In brief, mice were divided into groups of 5-6 animals. Control mice were administered 5 ul DMSO while treated animals were injected with 5 ul DMSO containing various doses of the indicated agent. After intrathecal injection, each mouse was placed in an individual 13×8.5×13 cm Plexiglass enclosure with wood chips on the floor for observation. Allodynia was assessed once every five minutes over a 50 minute time period, with response recorded eight times in the 15 to 50 minute time frame. Allodynia was assessed by light stroking of the flank of the mice with a small paintbrush and ranked as follows: 0, no response; 1, mild squeaking with attempts to move away from the stroking probe; and 2, vigorous squeaking evoked by the stroking probe, biting at the probe and strong efforts to escape. The eight scores for each animal were added together, and the mean for the group determined to give an average total score.

[2] = tested on: sulprostone-sensitized α-2A knockout mice; assay: Sulprostone sensitized pain (allodynia), α-2A knockout mice; type: in vivo, mouse
Experimental: as §1, with “In” for “Assays for allodynia in wild type and α-2A knockout mice were performed essentially according to the method of Yaksh and Harty, J. Pharmacology Exp. Ther. 244: 501-507 (1998). In”

Chung model rats = assay: Chung rat nerve ligation model, tactile allodynia reversal (Von Frey); type: in vivo; settings: for long-term pain alleviation after extended dosing: gabapentin 3 mg/kg oral TID three days, amitriptyline 0.1, brimonidine 0.04, Compound 1 0.1 mg/kg/hour minipump seven days; for analgesia when co-administered with Compound 13 at 0.2 mg/kg/day: osmotic minipump; for analgesia, agonist given alone: peripheral (intraperitoneal) administration, clonidine 100 μg/kg, Compound 3 1 to 1000 μg/kg; for Peak allodynia reversal (dose): intraperitoneal injection, dose (3-300 μg/kg); for allodynia reversal, enantiomers versus parent racemate: intraperitoneal administration, Chung model rats
Experimental: The Chung rat nerve ligation model is a well accepted model of peripheral neuropathic pain. In the Chung model, partial ligation of left spinal nerves L-5 and L-6 produces a long-lasting hypersensitivity to light touch on the affected left foot. The hypersensitivity is similar to pain experienced by humans with the neuropathic condition of causalgia (Kim and Chung, Pain 50:355-363 (1992)).
Chung rat surgeries of about 20 minutes duration were performed essentially as follows. Male Sprague-Dawley rats weighing 100 to 120 grams were anesthetized with isofluorane. After shaving and preparing the surgical site with betadine, an incision was made from thoracic vertebra XIII down toward the sacrum, and muscle separated from spinal vertebra (left side) at the L4-S2 levels. The L6 vertebra were located, and the transverse process carefully removed with a small rongeur to visually identify the L4-L6 spinal nerves. L5 and L6 spinal nerves were isolated and tightly ligated with 6-0 silk thread; the wound was sutured after complete hemostasis was confirmed. A small amount of antibiotic ointment was applied to the incised area before transferring the animals to a plastic recovery cage under a regulated heat-temperature lamp. Animals were not treated with any topical or local anesthetics post-operatively.
Assessment of pain in Chung model rats was performed by applying a light tactile stimulus (Von Frey hair) to the affected surgical paw as follows. A 50% pain threshold was established by applying the Von Frey hair in an up-and-down manner to the plantar surface of the surgical paw with just enough force to bend them. A positive response was recorded if the paw was withdrawn sharply. The 50% paw withdrawal threshold was determined using the method of Dixon et al., Ann. Rev. Pharmacol. Toxicol. 20:441-462 (1980). The post-drug threshold was compared to the pre-drug threshold, and the precent reversal of tactile sensitivity calculated based on a normal threshold of 15.1 grams. The results were expressed as % allodynia reversal, reflecting the percentage reversal of pain threshold relative to a normal rat (100%).
Chung surgeries were performed, and pain assessed as described above. Drugs administered via osmotic minipump were delivered as follows. ALZET (Cupertino, Calif.) minipumps (Model #1007D) were implanted subcutaneously on the rats' back between the shoulder blades. Pumps were filled with test solution prior to surgery, which was performed with aseptic procedures and sterilized surgical instruments. After anesthetization with isoflorane and midline incision between the shoulder blades through the muscle, a subcutaneous pocket was exposed. The minipump was inserted into the exposed pocket, before stapling the wounds closed and allowing animals to recover under a warming light.
ALZET osmotic minipumps (model 1007D) hold a total volume of 100 μl and delivered drug at the set rat of 0.5 μl per hour the indicated time period. Drugs were administered at the indicated rate, typically 100 μg/hr/kg, dissolved in 50% DMSO, with the concentration of drug in the pump varied depending on animal weight. […]

Male Sprague-Dawley rats = assay: Sedative effects in rats (total activity, digicom analyzer chamber); type: in vivo, rat; settings: 100 μg/kg Compound 2 co-administered with 0.3 μg/kg Compound 13
Experimental: Sedative effects were analyzed by assessing exploratory behavior in a darkened chamber as follows. Mice were weighed, and test compound administered by intrathecal injection in a volume of 5 μl or by intraperitoneal injection in 1 ml/kg volume at the indicated dose. At predetermined time points corresponding with analgesia measurements 5 to 30 minutes following the injection, the animal's activity was determined automatically by placing the mouse in a digicom analyzer chamber (Omnitech Electronic; Columbus, Ohio). The digicom analyzer chamber contains photocell beams criss-crossing the box that are broken as the animal moves around; the chamber was modified for mice by raising the level of the floor. Computer analysis of total animal movement proceeded over a 5-minute time period. Any given animal was used at most twice for this protocol, as learned behavior can affect the data. All animals received at least two weeks rest between studies.
Male Sprague-Dawley rats that were not subject to surgery were used for assessment of sedative effects. Rats were weighed and compound administered by intravenous or intraperitoneal injection or given orally at the indicated dose. At a predetermined time point 5 to 30 minutes following injection, the animal's activity was determined automatically by placing the rat in a digicom analyzer chamber (Omnitech Electronic). Total activity was analyzed as described above.

[3] = tested on: α-2B heterozygous (−/+) and homozygous (−/−) knockout mice; assay: Sulprostone sensitized pain (allodynia), α-2B knockout mice; type: in vivo, mouse; settings: intraperitoneal; heterozygous and homozygous α-2B knockout; clonidine 500 ug/kg, Compound 3 100 ug/kg
[4] = intraperitoneal injection, wild type mice (Compound 1 30 μg/kg; Compound 2 100 μg/kg)
[5] = intrathecal injection (Compound 1: 1 μg), wild type mice
[6] = intraperitoneal, α-2A knockout mice (Compound 1 30 μg/kg; Compound 2 and PAC 100 μg/kg)
[7] = intrathecal injection (Compound 1: 1 μg), α-2A knockout mice
[8] = Chung rats, Compound 2 100 μg/kg
[9] = subcutaneous osmotic minipump 0.1 mg/kg/hour, seven days
[10] = rauwolscine 0.3 μg/kg i.p., Compound 8 by osmotic minipump

Compound: Cc1c(N=C2NCCN2)ccc2c1NCCO2 [Compound 1]
- analgesia [1, 4]: failed to produce analgesia separable from sedation
- analgesia [1, 5]: significant analgesia separable from sedation
- analgesia [2, 6]: significant analgesia without sedation
- analgesia [2, 7]: did not produce analgesia
- long-term pain alleviation after extended dosing (Chung model rats): the allodynia returned completely prior to or following cessation of treatment
- analgesia when co-administered with Compound 13 at 0.2 mg/kg/day (Chung model rats; Chung rats): greater analgesia was observed during the dosing period, and this analgesic effect continued after completion of drug administration
- analgesia, agonist given alone (Chung model rats; [8]): neither compound was significantly analgesic at non-sedating doses

Compound: CC1=CCCC1Cc1c[nH]c(=S)[nH]1 (stereo not shown) [Compound 2]
- analgesia [1, 4]: not analgesic
- analgesia [2, 6]: fully analgesic
- analgesia when co-administered with 0.3 μg/kg Compound 13 (Chung model rats; intraperitoneal, Chung rats, clonidine 30 μg/kg, Compound 2 100 μg/kg): significant analgesia
- analgesia, agonist given alone (Chung model rats; [8]): not analgesic
- sedative effects (Male Sprague-Dawley rats): no significant sedative effects

Compound: Clc1cccc(CNC2=NCCS2)c1Cl [Compound 5]
- Peak allodynia reversal (dose) (Chung model rats): 77% +/− 8.3%

Compound: Fc1c(Cl)cccc1CNC1=NCCO1 [Compound 6]
- Peak allodynia reversal (dose) (Chung model rats): 92% +/− 5.2%

Compound: Cc1cccc(CNC(=S)NCCO)c1F [Compound 7]
- Peak allodynia reversal (dose) (Chung model rats): 60% +/− 8.0%

Compound: CCC1=CC(Cc2c[nH]cn2)CCC1 (stereo not shown) [Compound 9]
- allodynia alleviated during the period of drug treatment (Chung model rats; [9]): 60-80%
- persistence of analgesic effects after treatment (Chung model rats; [9]): continued for over a month after treatment was concluded

Compound: O=C1c2ccccc2CCC1Cc1c[nH]c(=S)[nH]1 (stereo not shown) [Compound 10]
- allodynia reversal, enantiomers versus parent racemate (Chung model rats): allodynia reversal was obtained; also recorded: as effective as parent racemic mixture in relieving pain

Compound: O=c1[nH]cc(C[C@H]2CCc3cc(F)ccc32)[nH]1 [Compound 12]
- allodynia reversal, enantiomers versus parent racemate (Chung model rats): at least as effective as the parent compound in reducing allodynia at all doses tested

Compound: Fc1ccc(Br)c(CNC2=NCCO2)c1 [Compound 14]
- Peak allodynia reversal (dose) (Chung model rats): 77% +/− 6.2%

Compound: Nc1cc(Cl)c(N=C2NCCN2)c(Cl)c1 [PAC, para-amino clonidine, reference compound]
- analgesia [2, 6]: analgesic
- analgesia, agonist given alone (Chung model rats; [8]): neither compound was significantly analgesic at non-sedating doses

Compound: CN(C)CCC=C1c2ccccc2CCc2ccccc21 [amitriptyline, reference compound]
- long-term pain alleviation after extended dosing (Chung model rats): the allodynia returned completely prior to or following cessation of treatment

Compound: Brc1c(NC2=NCCN2)ccc2nccnc12 [brimonidine]
- analgesia [1, 4]: failed to produce analgesia separable from sedation
- analgesia [1, 5]: significant analgesia separable from sedation
- analgesia [2, 6]: significant analgesia without sedation
- analgesia [2, 7]: did not produce analgesia
- analgesic effect in α-2B knockout mice [3]: analgesic
- long-term pain alleviation after extended dosing (Chung model rats): the allodynia returned completely prior to or following cessation of treatment
- analgesia when co-administered with Compound 13 at 0.2 mg/kg/day (Chung model rats; Chung rats): greater analgesia was observed during the dosing period, and this analgesic effect continued after completion of drug administration

Compound: NCC1(CC(=O)O)CCCCC1 [gabapentin, reference compound]
- long-term pain alleviation after extended dosing (Chung model rats): the allodynia returned completely prior to or following cessation of treatment

Compound: COC(=O)[C@H]1[C@H]2C[C@H]3c4[nH]c5ccccc5c4CCN3C[C@H]2CC[C@@H]1O [rauwolscine, reference compound]
- effect on the analgesic effect of PAC (100 μg/kg i.p.) ([2]; rauwolscine 0.3 μg/kg intraperitoneal, α-2A knockout mice): blocked
- inhibition of the analgesic activity of Compound 8, fourth day of treatment (Chung model rats; [10]): not on the fourth day
- inhibition of the analgesic activity of Compound 8, third day of treatment (Chung model rats; [10]): inhibited the analgesic activity of Compound 8 when injected on the third day
